Laboratory results taken from patent US11986532B2 (Arvinas Operations, Inc., priority 2021, dated 2024).
Where two headings read alike, the source gives them in different places.

Target: T1, BCL6 (Homo sapiens, UniProt P41182)
T1 construct: endogenous in cells; host or cells: T47D breast cancer epithelial cells
Assay: Immunofluorescence protocol for high content imaging of BCL6 (degradation) in T47D cells, 3 days compound treatment
Format: cell-based
Settings: for Dmax: read-out: Mean Dmax (%)** category; for DC50: read-out: Mean DC50 (nM)* category
Outline: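 T47D cells in RPMI1640-10% FBS were treated with an 11-point 3-fold dilution series (final top 0.1 or 1 μM) for 3 days at 37° C. After PFA fixation and Triton permeabilization, cells were immunostained with rabbit anti-BCL6 (1:300, overnight 4° C), Alexa-488 secondary, CellMask-647 and Hoechst, then imaged at 10×, 4 fields/well.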

[1] = T47D cells, 3 days compound treatment

| Compound | Dmax (T47D) [%] | DC50 [nM] | DC50 [1] [nM] | Dmax [1] [%] |
| --- | --- | --- | --- | --- |
| CNC(=O)COc1cc2c(F)c(Nc3nc(N4CCC(CN5CCC6(CN(c7ccc8c(c7F)CN(C7CCC(=O)NC7=O)C8=O)C6)C(F)(F)C5)CC4)ncc3Cl)ccc2n(C(C)C)c1=O (stereo not drawn) [Compound 376, 2-{[6-({5-chloro-2-[4-({2-[2-(2,6-dioxopiperidin-3-yl)-4-fluoro-1-oxo-2,3-dihydro-1H-isoindol-5-yl]-5,5-difluoro-2,7-diazaspiro[3.5]nonan-7-yl}methyl)piperidin-1-yl]pyrimidin-4-yl}amino)-5-fluoro-2-oxo-1-(propan-2-yl)-1,2-dihydroquinolin-3-yl]oxy}-N-methylacetamide] | ≥ 70 | < 10 | – | – |
| CNC(=O)COc1cc2cc(Nc3nc(N4CCN(CC5C6CN(c7ccc8c(c7)C(=O)N(C7CCC(=O)NC7=O)C8=O)CC56)CC4)ncc3Cl)ccc2n(C(C)C)c1=O (stereo not drawn) [Compound 155, 2-{[6-({5-chloro-2-[4-({3-[2-(2,6-dioxopiperidin-3-yl)-1,3-dioxo-2,3-dihydro-1H-isoindol-5-yl]-3-azabicyclo [3.1.0]hexan-6-yl}methyl)piperazin-1-yl]pyrimidin-4-yl}amino)-2-oxo-1-(propan-2-yl)-1,2-dihydroquinolin-3-yl]oxy}-N-methylacetamide] | – | – | < 10 | < 50 |
| CNC(=O)COc1cc2cc(Nc3ncncc3Cl)ccc2n(CCOc2ccc3c(c2)C(=O)N(C2CCC(=O)NC2=O)C3=O)c1=O (stereo not drawn) [Compound 146, 2-({6-[(5-chloropyrimidin-4-yl)amino]-1-(2-{[2-(2,6-dioxopiperidin-3-yl)-1,3-dioxo-2,3-dihydro-1H-isoindol-5-yl]oxy}ethyl)-2-oxo-1,2-dihydroquinolin-3-yl}oxy)-N-methylacetamide] | – | – | < 10 | – |
| CNC(=O)COc1cc2cc(Nc3nc(N4CCC(O[C@H]5C[C@H](N6CCC(c7c(C)cc8c(c7F)CN(C7CCC(=O)NC7=O)C8=O)CC6)C5)CC4)ncc3Cl)ccc2n(C(C)C)c1=O (stereo partly drawn) [Compound 397, 2-({6-[(5-chloro-2-{4-[(1r,3r)-3-{4-[2-(2,6-dioxopiperidin-3-yl)-4-fluoro-6-methyl-1-oxo-2,3-dihydro-1H-isoindol-5-yl]piperidin-1-yl}cyclobutoxy]piperidin-1-yl}pyrimidin-4-yl)amino]-2-oxo-1-(propan-2-yl)-1,2-dihydroquinolin-3-yl}oxy)-N-methylacetamide] | ≥ 70 | < 10 | – | – |
| CNC(=O)COc1cc2cc(Nc3nc(N4CCN(CC5CCN(c6c(F)ccc7c6CN(C6CCC(=O)NC6=O)C7=O)CC5)CC4)ncc3Cl)ccc2n(C(C)C)c1=O (stereo not drawn) [Compound 297, 2-{[6-({5-chloro-2-[4-({1-[2-(2,6-dioxopiperidin-3-yl)-5-fluoro-1-oxo-2,3-dihydro-1H-isoindol-4-yl]piperidin-4-yl}methyl)piperazin-1-yl]pyrimidin-4-yl}amino)-2-oxo-1-(propan-2-yl)-1,2-dihydroquinolin-3-yl]oxy}-N-methylacetamide] | 50 to 70 | < 10 | – | – |
| CNC(=O)COc1cc2cc(Nc3nc(N4CCC(O[C@H]5C[C@H](N6CC[C@H](c7ccc8c(c7F)CN([C@H]7CCC(=O)NC7=O)C8=O)C[C@@H]6C)C5)CC4)ncc3Cl)ccc2n(C(C)C)c1=O [Compound 293, 2-({6-[(5-chloro-2-{4-[(1r,3r)-3-[(2S,4S)-4-{2-[(3S)-2,6-dioxopiperidin-3-yl]-4-fluoro-1-oxo-2,3-dihydro-1H-isoindol-5-yl}-2-methylpiperidin-1-yl]cyclobutoxy]piperidin-1-yl}pyrimidin-4-yl)amino]-2-oxo-1-(propan-2-yl)-1,2-dihydroquinolin-3-yl}oxy)-N-methylacetamide] | 50 to 70 | < 10 | – | – |
| CNC(=O)COc1cc2cc(Nc3nc(N4CCC(O[C@H]5C[C@H](N6CC[C@@H](c7ccc8c(c7F)CN([C@H]7CCC(=O)NC7=O)C8=O)C[C@H]6C)C5)CC4)ncc3Cl)ccc2n(C(C)C)c1=O [Compound 294, 2-({6-[(5-chloro-2-{4-[(1r,3r)-3-[(2R,4R)-4-{2-[(3S)-2,6-dioxopiperidin-3-yl]-4-fluoro-1-oxo-2,3-dihydro-1H-isoindol-5-yl}-2-methylpiperidin-1-yl]cyclobutoxy]piperidin-1-yl}pyrimidin-4-yl)amino]-2-oxo-1-(propan-2-yl)-1,2-dihydroquinolin-3-yl}oxy)-N-methylacetamide] | ≥ 70 | < 10 | – | – |
| CNC(=O)COc1cc2cc(Nc3nc(N4CCC(CN5CCC6(CC5)CN(c5ccc7c(c5OC)CN(C5CCC(=O)NC5=O)C7=O)C6(C)C)CC4)ncc3Cl)ccc2n(C(C)C)c1=O (stereo not drawn) [Compound 340, 2-{[6-({5-chloro-2-[4-({2-[2-(2,6-dioxopiperidin-3-yl)-4-methoxy-1-oxo-2,3-dihydro-1H-isoindol-5-yl]-1,1-dimethyl-2,7-diazaspiro [3.5]nonan-7-yl}methyl)piperidin-1-yl]pyrimidin-4-yl}amino)-2-oxo-1-(propan-2-yl)-1,2-dihydroquinolin-3-yl]oxy}-N-methylacetamide] | – | 10 to 50 | – | – |
| CNC(=O)COc1cc2cc(Nc3nc(N4CCC(O[C@H]5C[C@H](N6CCN(c7ccc8c(c7C)C(=O)N(C7CCC(=O)NC7=O)C8=O)CC6)C5)CC4)ncc3Cl)ccc2n(C(C)C)c1=O (stereo partly drawn) [Compound 177, 2-({6-[(5-chloro-2-{4-[(1r,3r)-3-{4-[2-(2,6-dioxopiperidin-3-yl)-4-methyl-1,3-dioxoisoindol-5-yl]piperazin-1-yl}cyclobutoxy]piperidin-1-yl}pyrimidin-4-yl)amino]-1-isopropyl-2-oxoquinolin-3-yl}oxy)-N-methylacetamide] | – | – | < 10 | ≥ 70 |
| CNC(=O)COc1cc2cc(Nc3nc(N4CCC(O[C@H]5C[C@H](N6CC[C@H](c7ccc8c(c7)C(=O)N(C7CCC(=O)NC7=O)C8)[C@H](F)C6)C5)CC4)ncc3Cl)ccc2n(C(C)C)c1=O (mixture of isomers) [Compound 132] | – | – | < 10 | 50 to 70 |
| CNC(=O)COc1cc2cc(Nc3nc(N4CCC(N5CCC6(CN(CC7CCN(c8ccc9c(c8)CN(C8CCC(=O)NC8=O)C9=O)CC7)C6)C5)CC4)ncc3Cl)ccc2n(C(C)C)c1=O (stereo not drawn) [Compound 236, 2-({6-[(5-chloro-2-{4-[2-({1-[2-(2,6-dioxopiperidin-3-yl)-1-oxo-2,3-dihydro-1H-isoindol-5-yl]piperidin-4-yl}methyl)-2,6-diazaspiro[3.4]octan-6-yl]piperidin-1-yl}pyrimidin-4-yl)amino]-2-oxo-1-(propan-2-yl)-1,2-dihydroquinolin-3-yl}oxy)-N-methylacetamide] | 50 to 70 | < 10 | – | – |
| CNC(=O)COc1cc2cc(Nc3nc(N4CCC5(CCN(CC6(F)CCN(c7ccc(F)c8c7CN(C7CCC(=O)NC7=O)C8=O)CC6)CC5)CC4)ncc3Cl)ccc2n(C(C)C)c1=O (stereo not drawn) [Compound 129, 2-{[6-({5-chloro-2-[9-({1-[2-(2,6-dioxopiperidin-3-yl)-7-fluoro-1-oxo-2,3-dihydro-1H-isoindol-4-yl]-4-fluoropiperidin-4-yl}methyl)-3,9-diazaspiro[5.5]undecan-3-yl]pyrimidin-4-yl}amino)-2-oxo-1-(propan-2-yl)-1,2-dihydroquinolin-3-yl]oxy}-N-methylacetamide] | – | – | < 10 | 50 to 70 |
| CNC(=O)COc1cc2cc(Nc3nc(N4CCC(O[C@H]5C[C@H](N6CC[C@H](c7ccc8c(c7F)CN(C7CCC(=O)NC7=O)C8=O)[C@H](OC)C6)C5)CC4)ncc3Cl)ccc2n(C(C)C)c1=O (stereo partly drawn) [Compound 279, 2-({6-[(5-chloro-2-{4-[(1r,3r)-3-[(3S,4R)-4-[2-(2,6-dioxopiperidin-3-yl)-4-fluoro-1-oxo-2,3-dihydro-1H-isoindol-5-yl]-3-methoxypiperidin-1-yl]cyclobutoxy]piperidin-1-yl}pyrimidin-4-yl)amino]-2-oxo-1-(propan-2-yl)-1,2-dihydroquinolin-3-yl}oxy)-N-methylacetamide] | ≥ 70 | < 10 | – | – |
| CNC(=O)COc1cc2cc(Nc3nc(N4CCC(O[C@H]5C[C@H](N6CC7CCC(C6)N7c6ccc7c(c6)C(=O)N(C6CCC(=O)NC6=O)C7=O)C5)CC4)ncc3Cl)ccc2n(C(C)C)c1=O (stereo partly drawn) [Compound 370, 2-({6-[(5-chloro-2-{4-[(1r,3r)-3-{8-[2-(2,6-dioxopiperidin-3-yl)-1,3-dioxo-2,3-dihydro-1H-isoindol-5-yl]-3,8-diazabicyclo[3.2.1]octan-3-yl}cyclobutoxy]piperidin-1-yl}pyrimidin-4-yl)amino]-2-oxo-1-(propan-2-yl)-1,2-dihydroquinolin-3-yl}oxy)-N-methylacetamide] | < 50 | 10 to 50 | – | – |
| CNC(=O)COc1cc2cc(Nc3nc(N4CCC(N5CCC6(C5)CN(C5CCN(c7ccc8c(c7)CN(C7CCC(=O)NC7=O)C8=O)CC5)C6)CC4)ncc3Cl)ccc2n(C(C)C)c1=O (stereo not drawn) [Compound 235, 2-{[6-({5-chloro-2-[4-(2-{1-[2-(2,6-dioxopiperidin-3-yl)-1-oxo-2,3-dihydro-1H-isoindol-5-yl]piperidin-4-yl}-2,6-diazaspiro[3.4]octan-6-yl)piperidin-1-yl]pyrimidin-4-yl}amino)-2-oxo-1-(propan-2-yl)-1,2-dihydroquinolin-3-yl]oxy}-N-methylacetamide] | 50 to 70 | < 10 | – | – |
| CNC(=O)COc1cc2cc(Nc3nc(N4CCC(O[C@H]5C[C@H](N6CC7(CCN(c8ccc9c(c8)C(=O)N(C8CCC(=O)NC8=O)C9=O)CC7)C6)C5)CC4)ncc3Cl)ccc2n(C(C)C)c1=O (stereo partly drawn) [Compound 365, 2-({6-[(5-chloro-2-{4-[(1r,3r)-3-{7-[2-(2,6-dioxopiperidin-3-yl)-1,3-dioxo-2,3-dihydro-1H-isoindol-5-yl]-2,7-diazaspiro [3.5]nonan-2-yl}cyclobutoxy]piperidin-1-yl}pyrimidin-4-yl)amino]-2-oxo-1-(propan-2-yl)-1,2-dihydroquinolin-3-yl}oxy)-N-methylacetamide] | 50 to 70 | < 10 | – | – |
